These results are taken from patent US12486246B2, “Replication protein A (RPA)-DNA interaction inhibitors” (THE TRUSTEES OF INDIANA UNIVERSITY, priority 2019, dated 2025).

The subject of one series is SKGT-4 EAC cells. Description: Combination index (Chou-Talalay), CCK-8 assay. Format: cell-based. The protocol:
(§1) Cell survival was determined by CCK-8 viability assay and/or clonogenic survival assay in 96 well plates or 24 well plates, respectively and combination index (CI) analysis of drug-drug interactions determined by Chou-Talalay analysis as we have previously described. • 1) CCK-8 metabolic assay: Cells were plated (2500 cells/well) in 96-well plate and allowed to grow for at least 18 hours in at 37° C. in the presence of 5% CO2 before treatment with inhibitor for 48 hours. CCK-8 solution (Dojindo) was added to 10% of the total media volume and after 1-4 hours of incubation absorbance at 450 nm was determined using BioTek® Synergy™ H1 hybrid multi-mode microplate reader • 2) Clonogenic survival assay: Cells were plated in a 24 well (20,000 cells/well) plate, incubated for at least 18 hours and then treated with inhibitor. After 48 hours of treatment, the cells are re-plated in 10 cm dishes (500 cells/dish) and incubated for 8-10 days to allow colony formation. Plates are washed with PBS, fixed with glutaraldehyde and stained with crystal violet. Images of the stained colonies were captured with a Fuji LAS-3000 CCD system then counted using OpenCFU software. Viability is determined as a percent of vehicle controls and plotted versus drug concentration. • 3) Assessment of synergy via combination index (CI): In the combination index studies, cells (H460 or SKGT4) were treated with RPA inhibitor and Pt/etoposide/bleomycin/taxol/DDR inhibitor alone as well as the combination of both—the inhibitor and the DNA damaging chemotherapeutic agent/DDR inhibitor. The range of treatment was dependent on the IC50 of each inhibitor/drug. If the IC50 was X, then the cells were treated at a range of 0.04× to 5× concentration in a CCK-8 metabolic assay. The kill curves from both the single agent treatments as well as the combination treatment were used in a Chou-Talalay based method to determine the combination index (CI) at different fractions of cells affected.^40 A CI>1.0 indicates antagonism between the two agents, while a CI<1.0 indicates synergy.
(§2) Inhibiting RPA can act synergistically with DNA damaging therapeutics including cisplatin and etoposide (FIG. 4C). In these studies, we used the Chou-Talalay method, which provides a combination index (CI) that quantifies synergistic activity for each drug combination. […] The synergistic activity of compounds described herein with DNA damaging agents may be explained by RPA's role in the DNA damage response and signaling.
Background: Tetrazolium dyes change colour on reduction, which living cells bring about.

Another series has as its system H460 NSCLC cells. Description: Combination index (Chou-Talalay), CCK-8 assay. Type of series: cell-based. On the procedure: as §1, §2
Series [1] has as its system sonicated salmon sperm DNA. Description: Fluorescent intercalator displacement (FID) assay, SYBR-Green. Type of series: binding. To be noted: 25 mM MOPS pH 6.5. Summed up: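 Displacement of SYBR-Green from sonicated salmon sperm DNA (8.29 ng/μL) in 25 mM MOPS pH 6.5 with compound at indicated concentrations; doxorubicin positive control. Fluorescence (Ex 485/Em 528 nm) read within 5 min of incubation.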

For series [2], the target named is T1, RPA-AB construct (RPA70 AB domain) (Homo sapiens, UniProt P27694).
T1 construct: The DBD-A/B construct was expressed as a His6-RPA181-422 fusion protein; His6 (N); made in house; host or cells: E. coli BL21 (DE3)
Description: Differential scanning fluorimetry (DSF). Format: binding. The protocol: In order to probe the potential role of DNA intercalation as a mechanism for RPA inhibition, compounds 19, 23, 26, 27, 43 and 45 were analyzed using FID assay along with doxorubicin (Dox) as a positive control. […] In addition, direct binding of 9 derivatives to the target protein was assessed using a differential scan fluorimetry (DSF) assay. This assay assesses the melting profile of a protein at increasing temperatures via fluorescent dye binding. The direct interaction of a small molecule to the target protein can either increase or decrease the melting temperature (Tm) of the target depending on the specific protein and their interactions. […] Heparin sulfate, a known RPA interacting molecule often used in the purification of the protein was used as a control. […] (data not shown). […] (FIG. 1B).
The interaction of compound 43 with RPA-AB constructs was performed by differential scanning fluorimetry using GloMelt™ Dye (Biotum). […] Reactions were run in an ABI 7500 real time PCR machine with temperature increasing from 25° C. to 99° C. at a 2% ramp (˜40 minutes) and fluorescence of the reporter was measured on the SYBR® Green setting. […] Data was uploaded to TSA-CRAFT software and Tm calculated as described by Lee et al. Heparin was employed as a positive control of binding to the AB-box of RPA.
(In general: DSF heats the sample and reads unfolding from a dye or from intrinsic fluorescence.)

Series [3] can be described thus: Aqueous solubility in unbuffered water. Format: physicochemical. The following applies: 43, 44, 45, 46, 47 vs 9, 16, 26, 28, 29 respectively. The protocol: Aqueous solubility was determined by suspending compound in un-buffered water with stirring. Insoluble material was removed by sedimentation or filtration and soluble compound quantified by absorbance spectroscopy and LC/MS. pH dependence was determined by suspending compound in 10 mM citrate buffer at pH 4.0 or 10 mM phosphate […] as described above in the description.
The morpholine ring is commonly introduced into solvent exposed regions as a privileged solubilizing group to improve solubility or pharmacokinetic properties including metabolic stability of a prospective drug scaffold which is exemplified by many FDA approved drugs. Modifications on Ring A had less of an effect than the morpholino modifications at the alkyl carboxylic acid side chain. To determine the effect of pH on solubility, we prepared solution at 1 mM in citrate buffer at pH 4, phosphate buffer at pH 7 and carbonate buffer at pH 9.5.

T1 sequence (P27694 181-422): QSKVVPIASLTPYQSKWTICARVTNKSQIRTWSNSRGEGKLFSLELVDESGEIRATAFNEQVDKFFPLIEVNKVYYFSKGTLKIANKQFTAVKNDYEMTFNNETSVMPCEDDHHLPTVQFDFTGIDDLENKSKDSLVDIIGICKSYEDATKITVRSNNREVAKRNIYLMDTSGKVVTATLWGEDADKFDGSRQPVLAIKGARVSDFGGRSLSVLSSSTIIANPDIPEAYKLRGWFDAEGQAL

As to `CCOc1ccc2cc(C3CC(c4ccc(I)cc4)=NN3C(=O)CCCC(=O)NCCCN3CCOCC3)c(Cl)nc2c1` (stereo not shown) [Compound 43, 5-(5-(2-Chloro-7-ethoxyquinolin-3-yl)-3-(4-iodophenyl)-4,5-dihydro-1H-pyrazol-1-yl)-N-(3-morpholinopropyl)-5-oxopentanamide], the “synergy with PARP, DNA-PK, ATR and WEE1 inhibitors” value with SKGT-4 EAC cells (EAC cell model, BMN637, NU7441, VE821, MK1775) is “effectively synergizes”. The “combination interaction with taxol” value in the series with SKGT-4 EAC cells (SKGT-4 EAC cells, Chou-Talalay) is recorded as “additive interaction”. For the same compound, the “synergy (combination index) with bleomycin” value in the series on H460 NSCLC cells was “stronger synergy”. For the same compound, in the series on H460 NSCLC cells (CI <1.0 = synergy), the “synergy (combination index) with DNA damaging therapeutics cisplatin and etoposide” value is reported as “even greater synergy than either of its predecessors”. Further, in series [1], the “DNA binding activity (displacement of SYBR-Green intercalator)” value is “No significant DNA binding activity”. Moreover, the “increase in Tm” value in series [2] was 0.6 °C. For the same compound, the “aqueous solubility compared to carboxylic acid counterpart (in words)” value in series [3] is “increased solubility”.
